Patent publication US9969744B2, “Compounds for use in cognition improvement” (FUNDACIÓN PARA LA INVESTIGACIÓN MÉDICA APLICADA, priority 2014, dated 2018)
Marks after values point to notes of the source that are not given here.

What was measured:
PDE5A1 = target: T1, PDE5A1 (Homo sapiens, UniProt O76074); assay: PDE enzyme activity assay (HTRF cGMP), PDE5A; format: biochemical; conditions: recombinant enzyme; read-out: PDE5A1 inhibition (IC50)
T1 construct: they are full-length with N-terminal GST tag; GST (N); purchased BPS Biosciences 60050; host or cells: baculovirus infected Sf9 cells

[1] = system: phosphorylated tau (p-Tau); assay: AD-related markers in Tg2576 neurons: pTau; format: cell-based, mouse; conditions: Tg2576 primary neurons, compound concentration 50 nM
Method: The effects of the compounds on amyloid pathology were analysed in primary cultures after 21 days in-vitro (DIV) of neurons derived from the hippocampus and cortex of Tg2576 mouse embryos. Tg2576 mice express the human 695-aa isoform of APP (hAPP) containing the Swedish double mutation, which favours A3 production. Neurons were treated for two days and collected at day 3, 24 h after the last treatment. First it was analysed the effect of the compounds on hAPP processing by the amyloidogenic pathway by measuring the carboxyl terminal fragment AβPP (C99), which is the precursor of Aβ42. […]
It was next analyzed the effect of the compounds on levels of phosphorylated tau (p-Tau) in the same samples, another marker of AD, using a phospho-specific antibody (AT8) that recognizes hyperphosphorylated epitopes on Ser202/Thr205. […]
To analyze APP-derived fragments and p-Tau levels in primary neuronal cultures, cells were collected in a buffer containing SDS (2%), Tris-HCl (10 mM, pH 7.4), protease inhibitors (1 mM phenylmethylsulfonyl fluoride (PMSF) and Complete Protease Inhibitor Cocktail: Roche Diagnostics) and phosphatase inhibitors (0.1 mM Na3VO4 and 1 mM NaF). […] Aliquots of the supernatant were frozen at […] and their protein concentrations determined by the Bradford method using the Bio-Rad protein assay (Bio-Rad, Hercules, Calif., USA). […]

pCREB = assay: In-vivo pCREB in hippocampus of wild type mice; conditions: 1 h after single dose 40 mg/kg i.p.
Method: (§1) Another group of animals received the vehicle (1/1/8, v:v:v, DMSO/Tween 20/saline). One hour later, mice were sacrificed by cervical dislocation and their hippocampus was quickly dissected from the brains. Total tissue homogenates were obtained by homogenizing the hippocampus in a cold lysis buffer with protease inhibitors (0.2 M NaCl, 0.1 M HEPES, 10% glycerol, 200 mM NaF, 2 mM Na4P2O7, 5 mM EDTA, 1 mM EGTA, 2 mM DTT, 0.5 mM PMSF, 1 mM Na3VO4 and Complete Protease Inhibitor Cocktail, Roche Diagnostics). The homogenate was then centrifuged at 14,000×g at 4° C. for 20 min and the supernatant aliquoted and stored at −80° C. Total protein concentrations were determined using the BioRad Bradford protein assay (BioRad Laboratories). Protein samples were analyzed as described in the “in vitro” section.

AcH3 = assay: In-vivo AcH3 in hippocampus of wild type mice; conditions: 1 h after single dose 40 mg/kg i.p.
Method: as §1

aged-Tg2576 mice = assay: Memory function in aged-Tg2576 mice: Morris water maze (MWM); format: in vivo; conditions: Tg2576 mice (16-18 month), chronic treatment 3-5 weeks, 20 mg/Kg i.p.; retention phase, day 4th; standard error in brackets
Source text: The effect on memory function of compounds of the invention was studied in Tg2576 mice (16-18 month) after a chronic treatment of 3-5 weeks by using two different behavioral tasks: the Fear Conditioning (FC) and the Morris water maze (MWM) test, Table 5 (below)
The MWM test was used to evaluate spatial memory. After treatments, groups of animals underwent spatial reference learning and memory testing in the MWM. The water maze was a circular pool (diameter 1.2 m) filled with water maintained at 20° C. and made opaque by the addition of non-toxic white paint. Mice were trained for three consecutive days (8 trials/day) swimming to a raised platform (visible-platform). No distal visible cues were present during this phase. […] In the probe trials the platform was removed from the pool, and the percentage of time spent in the quadrant where the platform was previously set was recorded. All trials were monitored by a camera above the center of the pool connected to a SMART-LD program (Panlab S.L., Barcelona, Spain) for subsequent analysis of escape latencies, swimming speed, path length and percent time spent in each quadrant of the pool during probe trials. […]

CCCc1nn(C)c2c(=O)[nH]c(-c3cc(Cc4ccc(C(=O)Nc5ccccc5N)cc4)ccc3OCC)nc12 [Example 1-11, N-(2-aminophenyl)-4-[[4-ethoxy-3-(1-methyl-7-oxo-3-propyl-6H-pyrazolo[4,3-d]pyrimidin-5-yl)phenyl]methyl]benzamide]
IC50 (PDE5A1): 10 to 1000 nM
decrease in pTau levels over basal [1]: ++ (basal x0.2≤(++)<basal x0.4 (reduction between 20% and 40%))
pCREB increment vs basal (pCREB): +++ (basal x2≤(+++)<basal x3)
AcH3 increment vs basal (AcH3): ++ (basal x1≤(++)<basal x2)
MWM (% of time on right quadrant) (aged-Tg2576 mice): 33.83 (2.24)^c %
